Data as given in the NIST ThermoML archive (doi:10.1021/je030141r).
± gives the expanded uncertainty stated by the source.

Tests used:
[1] = Liquid; for mass density: 101.33 kPa
[2] = refractive index (Na D-line) (dimensionless); details: 101.33 kPa, Liquid, Standard Abbe refractometry

CCCCO [butan-1-ol]
mass density ([1]; 298.15 K): 805.8 ± 2.4 kg/m3
vapor or sublimation pressure ([1]; 389.45 K): 95.8 ± 9.6 kPa
refractive index ([2]; 298.15 K): 1.3974 ± 0.0012

ClC(Cl)=C(Cl)Cl [tetrachloroethene]
mass density ([1]; 298.15 K): 1614.3 ± 5 kg/m3
vapor or sublimation pressure ([1]; 392.25 K): 95.8 ± 9.6 kPa
refractive index ([2]; 298.15 K): 1.5032 ± 0.0012

ClC=C(Cl)Cl [trichloroethene]
mass density ([1]; 303.15 K): 1451.4 ± 4.5 kg/m3
vapor or sublimation pressure ([1]; 357.95 K): 95.8 ± 9.6 kPa
refractive index ([2]; 298.15 K): 1.475 ± 0.001

CCCCCCC [heptane]
mass density ([1]; 298.15 K): 679.5 ± 2 kg/m3
vapor or sublimation pressure ([1]; 369.35 K): 94.6 ± 9.5 kPa
refractive index ([2]; 298.15 K): 1.3851 ± 0.0012

CCC(C)=O [butanone]
mass density ([1]; 298.15 K): 799.7 ± 2.4 kg/m3
vapor or sublimation pressure ([1]; 350.75 K): 94.6 ± 19 kPa
refractive index ([2]; 298.15 K): 1.3769 ± 0.0012

ClCCCl [1,2-dichloroethane]
mass density ([1]; 298.15 K): 1246.4 ± 3.8 kg/m3
vapor or sublimation pressure ([1]; 355.25 K): 95.8 ± 9.6 kPa
refractive index ([2]; 298.15 K): 1.4421 ± 0.0012

CC(C)CO [2-methyl-1-propanol]
mass density ([1]; 298.15 K): 798 ± 2 kg/m3
vapor or sublimation pressure ([1]; 379.65 K): 95.8 ± 19 kPa
refractive index ([2]; 298.15 K): 1.3939 ± 0.0012

C1CCCCC1 [cyclohexane]
mass density ([1]; 298.15 K): 773.9 ± 2.3 kg/m3
vapor or sublimation pressure ([1]; 351.75 K): 94.6 ± 9.5 kPa
refractive index ([2]; 298.15 K): 1.4235 ± 0.0012

CC(C)(C)O [2-methylpropan-2-ol]
mass density ([1]; 298.15 K): 781.2 ± 2.3 kg/m3
vapor or sublimation pressure ([1]; 354.15 K): 95.8 ± 9.6 kPa
refractive index ([2]; 298.15 K): 1.385 ± 0.001

ClC(Cl)C(Cl)Cl [1,1,2,2-tetrachloroethane]
mass density ([1]; 298.15 K): 1586.7 ± 4.9 kg/m3
vapor or sublimation pressure ([1]; 417.35 K): 95.8 ± 9.7 kPa
vapor or sublimation pressure ([1]; 417.45 K): 95.8 ± 9.7 kPa
refractive index ([2]; 298.15 K): 1.4914 ± 0.0012

C1CCOC1 [tetrahydrofuran]
mass density ([1]; 293.15 K): 889.2 ± 2.7 kg/m3
vapor or sublimation pressure ([1]; 337.15 K): 94.6 ± 9.5 kPa
vapor or sublimation pressure ([1]; 337.55 K): 95.8 ± 9.6 kPa
refractive index ([2]; 293.15 K): 1.4072 ± 0.0012

CCC(C)O (centres undefined) [butan-2-ol]
mass density ([1]; 298.15 K): 802.4 ± 2.4 kg/m3
vapor or sublimation pressure ([1]; 371.35 K): 95.8 ± 9.6 kPa
refractive index ([2]; 298.15 K): 1.3953 ± 0.0012

CC(Cl)(Cl)Cl [1,1,1-trichloroethane]
mass density ([1]; 298.15 K): 1329.9 ± 4.1 kg/m3
vapor or sublimation pressure ([1]; 345.65 K): 95.8 ± 9.6 kPa
refractive index ([2]; 298.15 K): 1.4359 ± 0.0012

CCC(C)CO (centres undefined) [2-methyl-1-butanol]
mass density ([1]; 298.15 K): 815 ± 2.5 kg/m3
vapor or sublimation pressure ([1]; 400.35 K): 95.8 ± 9.7 kPa
refractive index ([2]; 298.15 K): 1.4084 ± 0.0008
